Test results as given in patent US20260257992A1, “AGONISTS OF SMALL HETERODIMER PARTNER FOR CANCER THERAPY” (THE BOARD OF TRUSTEES OF THE UNIVERSITY OF ILLINOIS, priority 2023, published 2026).

Assays:
4T1 tumors = assay: Orthotopic 4T1 primary tumor growth; assay type: in vivo, mouse; conditions: DSHN combined with αPDL1
Source text: FIG. 3A-3F. DSHN, a tool small molecule agonist of NR0B2 reduces macrophage/dendritic cell induced Treg expansion and tumor growth in murine models. […] (B) Dendritic cells (left-CD11B^+; CD11C^+) and CD4^+ T cells (right) were isolated from MMTV-PyMT tumors by FACS, and treated with vehicle or DSHN for 3d. The resulting frequency of Treg (CD4^+; CD25^+; FoxP3^+) was quantified by flow cytometry (right graph), (N=3-5/group, t test). […] The percentage of divided CD8+ T cells in the second round was quantified. (D) DSHN increases efficacy of αPDL1 therapy on orthotopic E0771 tumors. An optimal number of E0771 cells were grafted into FoxP3-EGFP mice and allowed to grow until tumors reached 100 mm^3. […] At the end of the study, lungs were removed and imaged ex vivo, quantified data indicated (N=10, 1-way ANOVA followed by Newman-Keuls multiple comparison test). […]
We then evaluated DSHN in a model where a low, suboptimal number of E0771-luc cells were grafted orthotopically. […] Treatment was ceased after 18 days and mice were monitored through time. […] We next assessed the effects of DSHN combined with αPDL1 on growth of primary tumors (optimal number of cells used to establish graft). […] We then evaluated the ability of DSHN to impact established metastatic disease—a stage that is refractory to standard of care therapy and immune checkpoint blockade. […]

E0771 tumors = assay: Survival after orthotopic graft of a suboptimal number of E0771-luc cells; assay type: in vivo, mouse; conditions: treatment ceased after 18 days
Source text: We then evaluated DSHN in a model where a low, suboptimal number of E0771-luc cells were grafted orthotopically. Since NR0B2 was also implicated in regulating myeloid cell expression of PD-L1, we investigated the effect of acute DSHN combined with anti-PD-L1 (αPDL1) treatment on subsequent outgrowth of E0771 tumors. Treatment was ceased after 18 days and mice were monitored through time. […] We next assessed the effects of DSHN combined with αPDL1 on growth of primary tumors (optimal number of cells used to establish graft). […] We then evaluated the ability of DSHN to impact established metastatic disease—a stage that is refractory to standard of care therapy and immune checkpoint blockade. […] In summary, the tool compound DSHN provides proof of principle that the NR0B2-myeloid cell-Treg axis can be targeted for the treatment of breast cancer.

[1] = system: dendritic cells from MMTV-PyMT tumors; assay: DCs (CD11B+; CD11C+) isolated from MMTV-PyMT tumors, treated ex vivo; assay type: cell-based, mouse
Source text: FIG. 3A-3F. DSHN, a tool small molecule agonist of NR0B2 reduces macrophage/dendritic cell induced Treg expansion and tumor growth in murine models. […] (B) Dendritic cells (left-CD11B^+; CD11C^+) and CD4^+ T cells (right) were isolated from MMTV-PyMT tumors by FACS, and treated with vehicle or DSHN for 3d. The resulting frequency of Treg (CD4^+; CD25^+; FoxP3^+) was quantified by flow cytometry (right graph), (N=3-5/group, t test). […] The percentage of divided CD8+ T cells in the second round was quantified. (D) DSHN increases efficacy of αPDL1 therapy on orthotopic E0771 tumors. An optimal number of E0771 cells were grafted into FoxP3-EGFP mice and allowed to grow until tumors reached 100 mm^3. Mice were euthanized on day 19 (waterfall plot, Fisher's exact test). (E) DSHN increases efficacy of αPDL1 therapy on orthotopic 4T1 tumors. 4T1 cells were orthotopically grafted into mice and allowed to establish for 5d prior to treatment start. Mice were euthanized on day 16 (waterfall plot, Fisher's exact test). (F) DSHN reduces metastatic outgrowth of 4T1 tumors and enhances efficacy of αPDL1 compared to placebo (p) (2-way ANOVA followed by Šidák's multiple comparison test for day 16). 4T1 cells were grafted intravenously, and lung metastatic lesions allowed to establish for 3d before treatment commenced. At the end of the study, lungs were removed and imaged ex vivo, quantified data indicated (N=10, 1-way ANOVA followed by Newman-Keuls multiple comparison test). Representative luciferase images shown to the right. * or different letters denote P<0.05 using indicated statistical test.
Since myeloid cells are thought to have been uniquely polarized within the tumor microenvironment, and in order to determine whether DSHN could overcome this, we isolated DCs (CD11B^+; CD11C^+) from MMTV-PyMT tumors. […] Cd4^+ T cells expanded in co-culture with DSHN pre-treated BMDMs had decreased suppressive capacity in terms of secondary CD8+ expansion (FIG. 3C).

Aqueous solubility = assay type: physicochemical
IL1b mRNA = IL1b mRNA reduction in Raw cells; assay type: cell-based; parameters: key: ✓: using strict cutoffs with respect to DSHN for passing each metric; X: using strict cutoffs with respect to DSHN for passing each metric; conditions: pass/fail with respect to DSHN
Source text: Development of a more efficacious NR0B2 agonist. While DSHN was a useful proof-of-concept small molecule, macrophages required high doses and chronic exposure for robust influences on subsequent Tregs expansion. […] Therefore, we synthesized several derivatives of DSHN and screened them using a reporter assay which makes use of the endogenous cholesterol homeostatic feedback loop, where FXR activation upregulates NR0B2, which then inhibits LXR and its normal induction of ABCA1. We then followed this screen with several others with stringent cutoffs: effect on endogenous ABCA1 and IL1β expression, reduction of Treg expansion in either macrophage or DC co-cultures, and low cellular toxicity (FIG. 5A, Table 4).

EMT6 metastatic lesions = assay: EMT6 metastatic mammary cancer (intravenous graft); assay type: in vivo, mouse
Source text: FIG. 7A-7I. DSHN-OMe reduces tumor and metastatic growth in murine models, in a myeloid cell-NR0B2 dependent manner. (A) E0771 cells were grafted into control mice (NR0B2^+/+; LysMCre^+) or mice where NR0B2 was knocked out in myeloid immune cells (NR0B2^fl/fl; LysMCre^+). 8 days post-graft, daily treatment with placebo or DSHN-OMe was initiated and subsequent tumor growth followed through time. Different letters denote statistical difference on the final measurement (day 21, 2-Way ANOVA followed by Šidák's post-hoc, N=5-8). (B) Waterfall plot illustration of data in (A) showing tumor volume at final day of measurement. Asterisk indicates significant difference (Chi-squared test, P<0.05). (C) Lewis Lung cells were grafted into control mice (NR0B2^+/+; LysMCre^+) or mice where NR0B2 was knocked out in myeloid immune cells (NR0B2^fl/fl; LysMCre^+). 10 days post-graft, daily treatment with placebo or DSHN-OMe was initiated and subsequent tumor growth followed through time. Different letters denote statistical difference on the final measurement (day 21, 2-Way ANOVA followed by Šidák's post-hoc, N=8-13). (D) Waterfall plot illustration of data in (C) showing tumor volume at final day of measurement. Asterisk indicates significant difference (Chi-squared test, P<0.05). (E) DSHN-OMe is an effective treatment against metastatic 4T1 mammary cancer growth. 4T1 cells were grafted intravenously, and lung metastatic lesions allowed to establish for 3d before treatment commenced. Metastatic burden through time is presented above the metastatic burden on the final day of imaging in the middle panel (N=12-17/group, mixed-effects model followed by Tukey's multiple comparison test). Representative luciferase images in the bottom panel. (F) DSHN-OMe is an effective treatment against metastatic EMT6 mammary cancer growth. EMT6 cells were grafted intravenously, and lung metastatic lesions allowed to establish for 3d. DSHN-OMe was administered on days 4, 5, 8, 9 and 10 post-graft. 11d post-graft lungs were imaged ex vivo for luciferase (N=15/group). (G) EMT6 metastatic lungs were assessed for Ki67 mRNA and (H) FOXP3 mRNA. (I) EMT6 metastatic lungs were assessed for CD8+ cytotoxic T cells (CD8+). Asterisks indicate statistically significant differences.
Metastatic breast cancer urgently requires new therapeutic approaches. Therefore, we tested the ability of DSHN-OMe to reduce the subsequent growth of established metastases. 4T1 cells were introduced intravenously and lesions allowed to establish for 3d. Since ICB has been approved for a subset of TNBC patients, we also included groups treated with αPDL1. […] We confirmed these findings using a different model of murine TNBC, EMT6. […]

Q: Which results are given for `CCN(CC)S(=O)(=O)c1cccc2cc(C(=O)O)c(O)cc12` [DSHN, reference compound]?
A: Growth of established 4T1 tumors, combined with αPDL1 (4T1 tumors): decreased growth; Survival of one DSHN-only treated mouse, no palpable tumor (E0771 tumors; post graft): more than 400 days; Survival time, combined with αPDL1 (E0771 tumors; versus placebo): significantly increased survival time; Treg expansion, tumor DCs co-cultured with CD4+ T cells [1]: decreased expansion of Treg cells; PD-L1 positivity of tumor DCs ([1]; cultured with DSHN followed by LPS and IFNγ): decreased PD-L1 positivity; Viability of tumor DCs ([1]; versus vehicle treated DCs from the same tumor): increased viability; Aqueous solubility (Aqueous solubility): poor aqueous solubility

Q: For `CCN(CC)S(=O)(=O)c1cccc2cc(C(=O)OC)c(O)cc12` [DSHN-OMe, Methyl 5-(N,N-diethylsulfamoyl)-3-hydroxy-2-naphthoate], which “IL1b mRNA reduction (Raw Cells)” value (IL1b mRNA) is on record?
A: ✓

Q: And the EMT6 metastatic burden (EMT6 metastatic lesions; lungs imaged ex vivo 11 d post-graft)?
A: significantly reduced metastatic burden

Q: What about the “CD8+ cytotoxic T cells in EMT6 metastatic lungs” value (EMT6 metastatic lesions; mouse, in vivo) of the same compound?
A: increase in the relative abundance of CD8+ cytotoxic T cells

Q: What about the “Foxp3 expression in EMT6 metastatic lungs” value (EMT6 metastatic lesions; mouse, in vivo) of the same compound?
A: decreased Foxp3 expression

Q: And the “Ki67 mRNA in EMT6 metastatic lungs” value (EMT6 metastatic lesions; mouse, in vivo)?
A: decreased
